Measurements reported in ChEMBL document CHEMBL1139861, “Novel series of potent, nonsteroidal, selective androgen receptor modulators based on 7H-[1,4]oxazino[3,2-g]quinolin-7-ones” (J Med Chem, 2007).

Key:
Progesterone receptor = biological target: T1, Progesterone receptor (Homo sapiens, UniProt P06401)
T1 sequence (P06401 whole entry): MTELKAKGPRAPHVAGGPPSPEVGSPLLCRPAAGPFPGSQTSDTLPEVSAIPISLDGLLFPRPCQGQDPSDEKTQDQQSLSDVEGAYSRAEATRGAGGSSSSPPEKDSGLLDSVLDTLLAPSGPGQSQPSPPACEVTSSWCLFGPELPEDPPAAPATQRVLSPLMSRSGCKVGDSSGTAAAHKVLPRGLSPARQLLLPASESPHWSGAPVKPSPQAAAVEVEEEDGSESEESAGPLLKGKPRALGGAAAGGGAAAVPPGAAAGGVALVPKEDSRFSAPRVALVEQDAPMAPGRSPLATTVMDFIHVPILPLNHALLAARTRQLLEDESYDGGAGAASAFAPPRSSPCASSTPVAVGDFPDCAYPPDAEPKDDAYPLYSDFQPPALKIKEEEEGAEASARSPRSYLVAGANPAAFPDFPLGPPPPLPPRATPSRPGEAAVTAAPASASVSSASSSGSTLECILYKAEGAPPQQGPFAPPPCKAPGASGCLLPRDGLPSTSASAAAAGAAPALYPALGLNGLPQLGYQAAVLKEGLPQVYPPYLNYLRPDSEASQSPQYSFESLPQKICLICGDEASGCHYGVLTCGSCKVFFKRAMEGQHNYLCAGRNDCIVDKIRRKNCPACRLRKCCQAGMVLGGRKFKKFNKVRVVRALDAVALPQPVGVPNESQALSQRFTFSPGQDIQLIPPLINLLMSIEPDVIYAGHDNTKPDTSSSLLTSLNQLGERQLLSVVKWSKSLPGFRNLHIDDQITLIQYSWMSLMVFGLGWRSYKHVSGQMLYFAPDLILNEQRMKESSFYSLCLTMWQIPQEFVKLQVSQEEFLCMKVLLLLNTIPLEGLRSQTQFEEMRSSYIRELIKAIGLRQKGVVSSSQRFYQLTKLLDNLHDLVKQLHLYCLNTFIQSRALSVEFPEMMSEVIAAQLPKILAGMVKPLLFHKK
Description: Displacement of [3H]progesterone from human PRA

Glucocorticoid receptor = biological target: T2, Glucocorticoid receptor (Homo sapiens, UniProt P04150); experiment: Displacement of radiolabeled Dexamethasone from human GR
T2 sequence (P04150 whole entry): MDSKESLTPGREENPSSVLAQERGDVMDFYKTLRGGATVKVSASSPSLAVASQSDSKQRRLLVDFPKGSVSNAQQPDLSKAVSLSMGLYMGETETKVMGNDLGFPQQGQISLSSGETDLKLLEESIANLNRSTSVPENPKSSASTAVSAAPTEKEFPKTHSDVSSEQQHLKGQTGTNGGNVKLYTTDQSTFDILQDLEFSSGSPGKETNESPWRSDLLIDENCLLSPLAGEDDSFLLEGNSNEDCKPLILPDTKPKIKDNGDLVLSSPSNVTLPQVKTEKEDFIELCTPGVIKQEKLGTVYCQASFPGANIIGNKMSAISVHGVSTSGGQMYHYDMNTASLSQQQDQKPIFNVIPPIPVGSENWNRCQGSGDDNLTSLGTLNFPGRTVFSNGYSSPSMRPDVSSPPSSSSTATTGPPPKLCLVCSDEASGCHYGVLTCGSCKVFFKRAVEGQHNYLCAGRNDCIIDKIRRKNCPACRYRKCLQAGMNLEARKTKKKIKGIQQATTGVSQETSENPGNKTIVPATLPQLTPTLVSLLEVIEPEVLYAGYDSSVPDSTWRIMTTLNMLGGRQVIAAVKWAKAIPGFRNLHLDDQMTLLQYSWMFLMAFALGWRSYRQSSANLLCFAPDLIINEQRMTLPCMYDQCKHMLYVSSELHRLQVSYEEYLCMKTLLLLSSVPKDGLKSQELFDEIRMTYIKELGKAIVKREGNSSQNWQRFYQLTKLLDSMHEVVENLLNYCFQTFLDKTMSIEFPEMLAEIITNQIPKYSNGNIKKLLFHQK

Androgen receptor [1] = biological target: T3, Androgen receptor (Homo sapiens, UniProt P10275)
T3 sequence (P10275 whole entry): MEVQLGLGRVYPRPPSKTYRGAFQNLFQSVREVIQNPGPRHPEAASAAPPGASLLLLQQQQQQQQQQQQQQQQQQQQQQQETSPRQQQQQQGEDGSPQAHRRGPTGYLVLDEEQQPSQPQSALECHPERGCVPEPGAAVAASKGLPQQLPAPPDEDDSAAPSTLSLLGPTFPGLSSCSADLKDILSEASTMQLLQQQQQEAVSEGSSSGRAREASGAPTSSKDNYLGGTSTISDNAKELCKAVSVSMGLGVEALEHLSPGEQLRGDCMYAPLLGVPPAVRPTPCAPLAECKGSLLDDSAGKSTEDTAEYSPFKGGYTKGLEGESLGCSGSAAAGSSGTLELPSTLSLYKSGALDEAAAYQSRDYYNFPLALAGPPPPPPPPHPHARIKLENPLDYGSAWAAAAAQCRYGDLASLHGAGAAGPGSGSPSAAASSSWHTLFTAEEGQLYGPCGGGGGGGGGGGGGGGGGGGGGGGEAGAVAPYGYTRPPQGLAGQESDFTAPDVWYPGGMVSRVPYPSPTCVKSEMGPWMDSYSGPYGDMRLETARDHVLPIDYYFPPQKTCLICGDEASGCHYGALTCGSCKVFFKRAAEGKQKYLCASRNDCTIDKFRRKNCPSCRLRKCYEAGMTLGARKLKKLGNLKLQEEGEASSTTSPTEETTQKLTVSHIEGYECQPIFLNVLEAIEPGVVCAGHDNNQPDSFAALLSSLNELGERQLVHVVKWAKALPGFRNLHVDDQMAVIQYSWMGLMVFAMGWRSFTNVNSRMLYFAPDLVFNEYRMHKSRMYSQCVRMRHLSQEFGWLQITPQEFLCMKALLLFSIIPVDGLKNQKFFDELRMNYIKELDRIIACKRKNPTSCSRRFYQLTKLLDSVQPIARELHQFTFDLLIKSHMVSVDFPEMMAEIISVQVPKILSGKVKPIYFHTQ
Description: Antagonist activity at human androgen receptor expressed in CV1 cells by transcriptional activation assay

[2] = biological target: T4, Mineralocorticoid receptor (Homo sapiens, UniProt P08235)
T4 sequence (P08235 whole entry): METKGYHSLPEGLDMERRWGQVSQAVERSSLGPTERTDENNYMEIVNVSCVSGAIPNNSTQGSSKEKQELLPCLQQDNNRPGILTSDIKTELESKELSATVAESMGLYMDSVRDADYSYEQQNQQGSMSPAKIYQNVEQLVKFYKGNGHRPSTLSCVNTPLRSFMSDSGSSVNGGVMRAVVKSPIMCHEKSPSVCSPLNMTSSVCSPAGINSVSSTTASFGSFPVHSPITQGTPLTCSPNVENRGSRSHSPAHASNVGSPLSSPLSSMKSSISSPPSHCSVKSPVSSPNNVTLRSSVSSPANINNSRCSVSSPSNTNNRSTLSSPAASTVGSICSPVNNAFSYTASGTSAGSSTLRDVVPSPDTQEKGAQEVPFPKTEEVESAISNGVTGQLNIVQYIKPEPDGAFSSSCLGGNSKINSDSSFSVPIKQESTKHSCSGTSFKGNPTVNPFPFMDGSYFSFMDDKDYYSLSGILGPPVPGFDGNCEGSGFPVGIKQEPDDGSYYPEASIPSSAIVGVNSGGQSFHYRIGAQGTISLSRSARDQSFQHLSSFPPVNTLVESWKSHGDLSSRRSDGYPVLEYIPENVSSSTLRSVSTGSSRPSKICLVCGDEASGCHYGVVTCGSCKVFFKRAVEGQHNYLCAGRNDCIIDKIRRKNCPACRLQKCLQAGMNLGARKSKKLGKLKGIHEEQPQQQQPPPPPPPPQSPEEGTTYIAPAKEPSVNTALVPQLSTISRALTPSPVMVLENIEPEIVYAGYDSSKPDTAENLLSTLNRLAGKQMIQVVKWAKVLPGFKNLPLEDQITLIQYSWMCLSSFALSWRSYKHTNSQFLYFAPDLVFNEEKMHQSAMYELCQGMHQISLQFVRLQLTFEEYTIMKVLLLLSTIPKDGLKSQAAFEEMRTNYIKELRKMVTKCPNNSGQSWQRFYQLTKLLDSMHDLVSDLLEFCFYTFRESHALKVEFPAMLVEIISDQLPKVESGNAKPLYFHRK
Description: Displacement of radiolabeled aldosterone from human MR

Androgen receptor [3] = biological target: T3, Androgen receptor; experiment: biochemical
Description: Displacement of [3H]DHT from human AR expressed in MDA-MB-453 cells

Androgen receptor [4] = biological target: T3, Androgen receptor; remark: listed apart in the source
Description: Agonist activity at human androgen receptor expressed in CV1 cells by transcriptional activation assay

Rattus norvegicus [5] = species on record: Rattus norvegicus; conditions: dose 100 mg/kg; route oral
Rattus norvegicus [6] = species on record: Rattus norvegicus; conditions: dose 100 mg/kg; route oral; remark: listed apart in the source

CCN1CCOc2cc3[nH]c(=O)cc(C(F)(F)F)c3cc21
Ki (Progesterone receptor): 5200 nM
Ki (Glucocorticoid receptor): 8100 nM
IC50 (Androgen receptor [1]): > 10000 nM
Ki [2]: > 10000 nM

CC(C)[C@@H]1COc2cc3[nH]c(=O)cc(C(F)(F)F)c3cc2N1CC(F)(F)F
Ki (Androgen receptor [3]): 51 nM
EC50 (Androgen receptor [4]): 5.9 nM

CN1CCOc2cc3[nH]c(=O)cc(C(F)(F)F)c3cc21
IC50 (Androgen receptor [1]): > 10000 nM

CCCN1CCOc2cc3[nH]c(=O)cc(C(F)(F)F)c3cc21
IC50 (Androgen receptor [1]): > 10000 nM

CC(C)CN1CCOc2cc3[nH]c(=O)cc(C(F)(F)F)c3cc21
Ki (Androgen receptor [3]): 17 nM
EC50 (Androgen receptor [4]): 3.2 nM

CC(C)C[C@@H]1COc2cc3[nH]c(=O)cc(C(F)(F)F)c3cc2N1CC(F)(F)F
Ki (Androgen receptor [3]): 109 nM
EC50 (Androgen receptor [4]): 27 nM

O=c1cc(C(F)(F)F)c2cc3c(cc2[nH]1)OC[C@H]1CCCN31
Ki (Androgen receptor [3]): 27 nM
EC50 (Androgen receptor [4]): 26 nM

O=c1cc(C(F)(F)F)c2cc3c(cc2[nH]1)OCCN3CC(F)(F)F
Ki (Progesterone receptor): 5300 nM
Ki (Glucocorticoid receptor): 9200 nM
IC50 (Androgen receptor [1]): > 10000 nM
Ki [2]: > 10000 nM

O=c1cc(C(F)(F)F)c2cc3c(cc2[nH]1)OCCN3CC1CC1
Ki (Progesterone receptor): 2000 nM
Ki (Glucocorticoid receptor): 8800 nM
Ki [2]: > 10000 nM

CC(C)(C)N1CCOc2cc3[nH]c(=O)cc(C(F)(F)F)c3cc21
Ki (Androgen receptor [3]): 48 nM
IC50 (Androgen receptor [1]): > 10000 nM
EC50 (Androgen receptor [4]): 7.8 nM

O=c1cc(C(F)(F)F)c2cc3c(cc2[nH]1)OCCN3Cc1ccccc1
Ki (Androgen receptor [3]): 206 nM
IC50 (Androgen receptor [1]): 224 nM
EC50 (Androgen receptor [4]): > 10000 nM

O=c1cc(C(F)(F)F)c2cc3c(cc2[nH]1)OCCN3
Ki (Androgen receptor [3]): > 1000 nM
IC50 (Androgen receptor [1]): 296 nM
EC50 (Androgen receptor [4]): > 10000 nM

CCC1COc2cc3[nH]c(=O)cc(C(F)(F)F)c3cc2N1CC (racemic)
Ki (Androgen receptor [3]): 5.6 nM
EC50 (Androgen receptor [4]): 3.9 nM

O=c1cc(C(F)(F)F)c2cc3c(cc2[nH]1)OCC1CCCCN31 (racemic)
Ki (Progesterone receptor): > 10000 nM
Ki (Glucocorticoid receptor): > 10000 nM
Ki (Androgen receptor [3]): 16 nM
EC50 (Androgen receptor [4]): 14 nM

CC1COc2cc3[nH]c(=O)cc(C(F)(F)F)c3cc2N1 (racemic)
Ki (Androgen receptor [3]): 113 nM
EC50 (Androgen receptor [4]): 133 nM

CCN1c2cc3c(C(F)(F)F)cc(=O)[nH]c3cc2OCC1C (racemic)
Ki (Androgen receptor [3]): 4.2 nM
EC50 (Androgen receptor [4]): 10 nM

CC1COc2cc3[nH]c(=O)cc(C(F)(F)F)c3cc2N1CC1CC1 (racemic)
Ki (Androgen receptor [3]): 4 nM
EC50 (Androgen receptor [4]): 1.9 nM

CC1CN(CC(F)(F)F)c2cc3c(C(F)(F)F)cc(=O)[nH]c3cc2O1 (racemic)
Ki (Progesterone receptor): 7000 nM
Ki (Glucocorticoid receptor): > 10000 nM
Ki [2]: > 10000 nM

CCC1CN(C)c2cc3c(C(F)(F)F)cc(=O)[nH]c3cc2O1 (racemic)
Ki (Androgen receptor [3]): 58 nM
IC50 (Androgen receptor [1]): 67 nM
EC50 (Androgen receptor [4]): 52 nM

CC1CN(C)c2cc3c(C(F)(F)F)cc(=O)[nH]c3cc2O1 (racemic)
Ki (Androgen receptor [3]): 33 nM
EC50 (Androgen receptor [4]): 47 nM

CCC1CN(CC(F)(F)F)c2cc3c(C(F)(F)F)cc(=O)[nH]c3cc2O1 (racemic)
Ki (Androgen receptor [3]): 30 nM
IC50 (Androgen receptor [1]): > 10000 nM
EC50 (Androgen receptor [4]): 15 nM

CCC1CN(CC)c2cc3c(C(F)(F)F)cc(=O)[nH]c3cc2O1 (racemic)
Ki (Androgen receptor [3]): 34 nM
IC50 (Androgen receptor [1]): > 10000 nM
EC50 (Androgen receptor [4]): 31 nM

CCC1COc2cc3[nH]c(=O)cc(C(F)(F)F)c3cc2N1CC1CC1 (racemic)
Ki (Progesterone receptor): 5400 nM
Ki (Glucocorticoid receptor): > 10000 nM
Ki (Androgen receptor [3]): 23 nM
EC50 (Androgen receptor [4]): 2.3 nM

CC1CN(CC(F)(F)F)c2cc3c(C(F)(F)F)cc(=O)[nH]c3cc2O1 (stereo in doubt; (-)-10h)
IC50 (Androgen receptor [1]): > 10000 nM

C[C@]1(O)CC[C@H]2[C@@H]3CCC4=CC(=O)CC[C@]4(C)[C@@]3(F)[C@@H](O)C[C@@]21C [FLUOXYMESTERONE]
Efficacy (Rattus norvegicus [5]): 129%
Efficacy (Rattus norvegicus [6]): 79%
